Results reported in PubChem BioAssay AID256 (DTP/NCI, 2004).
Inconclusive results and toxic doses are left out. The calls were made as follows: active = survival T/C of 150% or more; inactive = T/C below 125% in these data.

System: CD2F1 mice, L1210 leukemia ip, survival T/C
Assay: NCI In Vivo Anticancer Drug Screen. Data for tumor model L1210 Leukemia (intraperitoneal) in CD2F1 (CDF1) mice
Details: higher = longer survival
In short: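 Antitumor effect is scored in animals hosting a serially transplanted tumor. Values compare compound-dosed animals against vehicle-only controls as a simple quotient.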

[1] = endpoint: mean survival time, dose: 100.0 mg/kg/injection, schedule: Q01DX001 (ip), vehicle: saline with Tween-80
[2] = endpoint: mean survival time, dose: 200.0 mg/kg/injection, schedule: Q01DX001 (ip), vehicle: saline with Tween-80
[3] = endpoint: mean survival time, dose: 400.0 mg/kg/injection, schedule: Q01DX001 (ip), vehicle: saline with Tween-80

Measured: T/C

O=S(=O)(F)c1ccc(C[P+](c2ccccc2)(c2ccccc2)c2ccccc2)c(Cl)c1
inactive: endpoint: mean survival time, dose: 18.8 mg/kg/injection, schedule: Q01DX009 (ip), vehicle: saline 103 % of control | endpoint: mean survival time, dose: 18.8 mg/kg/injection, schedule: Q04DX003 (ip), vehicle: saline 114 % of control | endpoint: mean survival time, dose: 37.5 mg/kg/injection, schedule: Q01DX009 (ip), vehicle: saline 100 % of control | endpoint: mean survival time, dose: 37.5 mg/kg/injection, schedule: Q04DX003 (ip), vehicle: saline 116 % of control | endpoint: mean survival time, dose: 75.0 mg/kg/injection, schedule: Q01DX001 (ip), vehicle: saline 103 % of control | endpoint: mean survival time, dose: 75.0 mg/kg/injection, schedule: Q04DX003 (ip), vehicle: saline 112 % of control

CC(=O)CC(=O)C(F)(F)F.CC(=O)CC(=O)C(F)(F)F.[Ni]
inactive: endpoint: median survival time, dose: 25.0 mg/kg/injection, schedule: Q04DX002 (ip), vehicle: saline with Tween-80 100 % of control | endpoint: median survival time, dose: 50.0 mg/kg/injection, schedule: Q04DX002 (ip), vehicle: saline with Tween-80 122 % of control

CC(=O)OC1CCC2(C)C(CCC3C2CCC2(C)C(C(C)=O)CCC32)C1 (stereo not drawn)
inactive: endpoint: mean survival time, dose: 100.0 mg/kg/injection, schedule: Q04DX003 (sc), vehicle: steriod suspending solution 103 % of control | endpoint: mean survival time, dose: 200.0 mg/kg/injection, schedule: Q04DX003 (sc), vehicle: steriod suspending solution 97 % of control | endpoint: mean survival time, dose: 400.0 mg/kg/injection, schedule: Q04DX003 (sc), vehicle: steriod suspending solution 107 % of control

CC(CO)(CO)[N+](=O)[O-]
inactive: endpoint: mean survival time, dose: 100.0 mg/kg/injection, schedule: Q01DX009 (ip), vehicle: saline 98 % of control | endpoint: mean survival time, dose: 200.0 mg/kg/injection, schedule: Q01DX009 (ip), vehicle: saline 102 % of control | endpoint: mean survival time, dose: 400.0 mg/kg/injection, schedule: Q01DX009 (ip), vehicle: saline 104 % of control

O=P(O)(O)OP(=O)(O)O.[NH-]CC[NH-].[NH-]CC[NH-].[Pd+2].[Pd+2]
inactive: endpoint: mean survival time, dose: 3.13 mg/kg/injection, schedule: Q04DX003 (ip), vehicle: distilled water + Tween-80 98 % of control | endpoint: mean survival time, dose: 6.25 mg/kg/injection, schedule: Q04DX003 (ip), vehicle: distilled water + Tween-80 93 % of control | endpoint: mean survival time, dose: 12.5 mg/kg/injection, schedule: Q04DX003 (ip), vehicle: distilled water + Tween-80 87 % of control | endpoint: mean survival time, dose: 25.0 mg/kg/injection, schedule: Q04DX003 (ip), vehicle: distilled water + Tween-80 96 % of control | endpoint: mean survival time, dose: 50.0 mg/kg/injection, schedule: Q04DX003 (ip), vehicle: distilled water + Tween-80 100 % of control | endpoint: mean survival time, dose: 100.0 mg/kg/injection, schedule: Q04DX003 (ip), vehicle: distilled water + Tween-80 105 % of control

CCOP(=O)(OCC)C1=C(P(=O)(OCC)OCC)C(F)(F)C(F)(F)C1(F)F
inactive: endpoint: mean survival time, dose: 75.0 mg/kg/injection, schedule: Q01DX001 (ip), vehicle: other 107 % of control

CCOC(=O)CCC(NC(=O)OCCNCCCl)C(=O)OCC (stereo not drawn)
inactive: endpoint: mean survival time, dose: 40.0 mg/kg/injection, schedule: Q01DX Z (ip), vehicle: saline 100 % of control | endpoint: mean survival time, dose: 80.0 mg/kg/injection, schedule: Q01DX Z (ip), vehicle: saline 96 % of control | endpoint: mean survival time, dose: 160.0 mg/kg/injection, schedule: Q01DX Z (ip), vehicle: saline 103 % of control | endpoint: mean survival time, dose: 320.0 mg/kg/injection, schedule: Q01DX Z (ip), vehicle: saline 117 % of control

N#Cc1nnn(C2OC(CO)C(O)C2O)c1C#N (stereo not drawn)
inactive: endpoint: mean survival time, dose: 12.5 mg/kg/injection, schedule: Q01DX005 (ip), vehicle: other 100 % of control | endpoint: mean survival time, dose: 25.0 mg/kg/injection, schedule: Q01DX005 (ip), vehicle: other 97 % of control | endpoint: mean survival time, dose: 50.0 mg/kg/injection, schedule: Q01DX005 (ip), vehicle: other 96 % of control | endpoint: mean survival time, dose: 100.0 mg/kg/injection, schedule: Q01DX005 (ip), vehicle: other 94 % of control | endpoint: mean survival time, dose: 200.0 mg/kg/injection, schedule: Q01DX005 (ip), vehicle: other 102 % of control

CCN(CC)CCNc1cc(C)nc(/N=C(\N)Nc2ccc(Br)c(C(F)(F)F)c2)n1
inactive: endpoint: mean survival time, dose: 100.0 mg/kg/injection, schedule: Q04DX003 (ip), vehicle: saline with Tween-80 98 % of control

Cc1ccoc1N(O)c1occc1C
inactive: [1] 93 % of control | [2] 101 % of control | [3] 95 % of control

O=[N+]([O-])c1ccc(SC(=S)N(c2ccccc2)c2ccccc2)c([N+](=O)[O-])c1
inactive: endpoint: mean survival time, dose: 100.0 mg/kg/injection, schedule: Q01DX001 (ip), vehicle: Klucel (hydroxypropylcellulose) (HPC) 87 % of control | endpoint: mean survival time, dose: 200.0 mg/kg/injection, schedule: Q01DX001 (ip), vehicle: Klucel (hydroxypropylcellulose) (HPC) 91 % of control | endpoint: mean survival time, dose: 400.0 mg/kg/injection, schedule: Q01DX001 (ip), vehicle: Klucel (hydroxypropylcellulose) (HPC) 100 % of control

S=C(S)N1CCCC1
inactive: endpoint: mean survival time, dose: 100.0 mg/kg/injection, schedule: Q04DX003 (ip), vehicle: saline 95 % of control | endpoint: mean survival time, dose: 200.0 mg/kg/injection, schedule: Q04DX003 (ip), vehicle: saline 95 % of control | endpoint: mean survival time, dose: 400.0 mg/kg/injection, schedule: Q04DX003 (ip), vehicle: saline 92 % of control

O=C(COc1ccc(Cl)c(Cl)c1)NCc1cccc(NC(=O)c2ccc(S(=O)(=O)F)cc2)c1
inactive: [1] 87 % of control | [2] 86 % of control | [3] 89 % of control
